Like-named read-outs stand apart in the source and are kept apart here.
Key:
[1] = biological target: S. aureus TopoIV enzyme (Staphylococcus aureus, UniProt P0C1S7); test: DNA Topo IV ATPase Assay; format: biochemical
Method: The conversion of ATP to ADP by S. aureus TopoIV enzyme was coupled to the conversion of NADH to NAD+, and the progress of the reaction was measured by the change in absorbance at 340 nm. TopoIV (64 nM) was incubated with the selected compound (3% DMSO final) in buffer for 10 minutes at 30° C. The buffer consisted of 100 mM Tris 7.5, 1.5 mM MgCl2, 200 mM K·Glutamate, 2.5 mM phosphoenol pyruvate, 0.2 mM NADH, 1 mM DTT, 5 μg/mL linearized DNA, 50 μg/mL BSA, 30 μg/mL pyruvate kinase, and 10 μg/mL lactate dehyrodgenase (LDH). The reaction was initiated with ATP, and rates were monitored continuously for 20 minutes at 30° C. on a Molecular Devices SpectraMAX plate reader. The inhibition constant, Ki, was determined from plots of rate vs. concentration of selected compound fit to the Morrison Equation for tight binding inhibitors.

[2] = Aqueous Solubility Study; format: physicochemical; settings: aqueous buffer, thermodynamic from solid; water, pH adjusted with 1.0N HCl, stirred 96 hours at room temperature, filtered, HPLC; filtrate pH per compound (23: >3.0; X: 4.41; Y: 3.01; Z: 4.35)
Method: The aqueous solubilities of compounds 23, X, Y, and Z were determined according to the following procedure.
Aqueous samples of each compound were prepared as follows. Compounds were weighed (20-30 mg compound) in 4 ml clear vials prior to adding water (0.5 mL) and stirring by magnetic stirrer. 1.0N HCl was added to the suspension to adjust the pH to the desired range. After stirring for 96 hours at room temperature, the suspension was filtered through a 0.22 micron filter (Millipore, Ultrafree centrifugal filters, Durapore PVDF 0.22 μm, Cat# UFC30GVNB). The filtrate was collected and the pH measured with a pH meter. The filtrates containing compounds X and Z were diluted 100-fold and 400-fold, respectively, to provide an appropriate concentration for HPLC analysis.
Standard solutions of each compound were prepared according to the following procedure. 1 to 2 mg of each compound was accurately weighed into a 10 mL volumetric flask and either water (for compounds X and Z), methanol (for compound Y), or 1:1 methanol:0.1N HCl (for compound 23) was added to completely dissolve the compounds. Sonication was performed for compound 23 to assist with the dissolution in 1:1 methanol:0.1N HCl. When all solids dissolved, additional solvent was added to adjust the volume of each solution to 10 ml. The resulting solutions were thoroughly mixed to give the standard solutions of each compound. Each standard solution was then diluted with solvent by 2-fold, 10-fold, and 100-fold.
Aliquots of each sample and each standard solution were analyzed by HPLC analysis (Agilent 1100, injection volume 10 μL, wavelength 271 nm, column XTerra® Phenyl 5 μm, 4.6×50 mm, Part No. 186001144, mobile phase: A: 0.1% TFA in water 0.1% TFA in AcN). Each standard solution was injected three times, and each of the samples was injected twice. Standard curves were obtained by plotting the average of the peak area from the HPLC versus the concentrations of the standard solutions (with appropriate corrections of the weights of the standards based on total water content of the solid as determined by elemental analysis). The concentration of each sample was calculated from the peak area of the aqueous sample from the HPLC results and the slope and intercept of the standard curves. The solubility values listed in Table 3 below were derived from the product of the concentration of the sample and the dilution factor of the sample.

[3] = biological target: S. aureus DNA gyrase (Staphylococcus aureus, UniProt P0A0K8); test: DNA Gyrase ATPase Assay; format: biochemical; settings: coupled ATPase assay, 30° C., 90 nM enzyme, 0.9 mM ATP; read-out: Ki, Inhibition of S. aureus DNA Gyrase
Sequence of S. aureus DNA gyrase (P0A0K8 whole entry): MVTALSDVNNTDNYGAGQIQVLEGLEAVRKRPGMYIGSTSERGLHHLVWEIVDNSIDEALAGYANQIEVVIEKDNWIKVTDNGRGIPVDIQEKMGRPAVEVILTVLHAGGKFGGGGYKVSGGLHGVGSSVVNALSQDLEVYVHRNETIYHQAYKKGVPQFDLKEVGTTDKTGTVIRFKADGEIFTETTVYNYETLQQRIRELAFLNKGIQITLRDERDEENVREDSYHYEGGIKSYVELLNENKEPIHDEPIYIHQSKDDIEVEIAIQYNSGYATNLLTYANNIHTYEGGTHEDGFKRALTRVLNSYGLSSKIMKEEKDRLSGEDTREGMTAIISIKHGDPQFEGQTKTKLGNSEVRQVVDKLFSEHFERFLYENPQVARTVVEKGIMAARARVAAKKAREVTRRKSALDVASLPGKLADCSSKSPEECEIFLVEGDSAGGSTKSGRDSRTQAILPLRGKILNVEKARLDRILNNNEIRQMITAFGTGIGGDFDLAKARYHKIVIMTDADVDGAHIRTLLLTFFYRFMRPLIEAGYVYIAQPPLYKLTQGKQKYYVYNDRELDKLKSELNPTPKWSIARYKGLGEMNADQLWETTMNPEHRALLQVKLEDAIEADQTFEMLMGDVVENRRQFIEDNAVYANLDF
Sequence of S. aureus DNA gyrase (P20831 whole entry partner): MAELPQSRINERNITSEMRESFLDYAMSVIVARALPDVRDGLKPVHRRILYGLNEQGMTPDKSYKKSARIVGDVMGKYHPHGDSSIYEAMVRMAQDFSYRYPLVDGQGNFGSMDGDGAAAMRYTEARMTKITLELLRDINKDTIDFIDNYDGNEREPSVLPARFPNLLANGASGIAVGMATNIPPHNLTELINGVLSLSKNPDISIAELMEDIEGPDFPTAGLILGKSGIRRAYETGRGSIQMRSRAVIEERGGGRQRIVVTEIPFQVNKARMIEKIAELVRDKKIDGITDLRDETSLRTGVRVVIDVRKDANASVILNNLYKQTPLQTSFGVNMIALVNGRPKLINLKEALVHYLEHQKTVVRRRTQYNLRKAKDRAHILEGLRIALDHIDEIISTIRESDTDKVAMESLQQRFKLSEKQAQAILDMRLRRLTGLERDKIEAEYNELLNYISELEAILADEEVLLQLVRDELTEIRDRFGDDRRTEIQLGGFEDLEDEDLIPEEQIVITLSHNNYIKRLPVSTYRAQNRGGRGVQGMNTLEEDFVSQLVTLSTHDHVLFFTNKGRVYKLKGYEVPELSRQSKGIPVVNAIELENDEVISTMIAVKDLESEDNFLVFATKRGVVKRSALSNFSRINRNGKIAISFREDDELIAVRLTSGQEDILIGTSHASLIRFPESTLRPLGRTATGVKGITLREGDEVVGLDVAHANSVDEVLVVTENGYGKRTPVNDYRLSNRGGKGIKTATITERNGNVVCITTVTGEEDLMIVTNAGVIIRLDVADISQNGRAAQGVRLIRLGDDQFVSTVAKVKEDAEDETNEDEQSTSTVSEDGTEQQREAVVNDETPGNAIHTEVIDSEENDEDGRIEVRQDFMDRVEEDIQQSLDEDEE
Method: The ATP hydrolysis activity of S. aureus DNA gyrase was measured by coupling the production of ADP through pyruvate kinase/lactate dehydrogenase to the oxidation of NADH. This method has been described previously (Tamura and Gellert, 1990, J. Biol. Chem., 265, 21342).
ATPase assays were carried out at 30° C. in buffered solutions containing 100 mM TRIS pH 7.6, 1.5 mM MgCl2, 150 mM KCl. The coupling system contains final concentrations of 2.5 mM phosphoenol pyruvate, 200 μM nicotinamide adenine dinucleotide (NADH), 1 mM DTT, 30 ug/ml pyruvate kinase, and 10 ug/ml lactate dehydrogenase. The enzyme (90 nM final concentration) and a DMSO solution (3% final concentration) of the selected compound were added. The reaction mixture was allowed to incubate for 10 minutes at 30° C. The reaction was initiated by the addition of ATP to a final concentration of 0.9 mM, and the rate of NADH disappearance was monitored at 340 nanometers over the course of 10 minutes. The Ki values were determined from rate versus concentration profiles.

[4] = coupled ATPase assay, 30° C., 64 nM TopoIV, Morrison Equation fit, read-out: Ki, Inhibition of S. aureus DNA Topo IV

Sequence of S. aureus TopoIV enzyme (P0C1S7 whole entry): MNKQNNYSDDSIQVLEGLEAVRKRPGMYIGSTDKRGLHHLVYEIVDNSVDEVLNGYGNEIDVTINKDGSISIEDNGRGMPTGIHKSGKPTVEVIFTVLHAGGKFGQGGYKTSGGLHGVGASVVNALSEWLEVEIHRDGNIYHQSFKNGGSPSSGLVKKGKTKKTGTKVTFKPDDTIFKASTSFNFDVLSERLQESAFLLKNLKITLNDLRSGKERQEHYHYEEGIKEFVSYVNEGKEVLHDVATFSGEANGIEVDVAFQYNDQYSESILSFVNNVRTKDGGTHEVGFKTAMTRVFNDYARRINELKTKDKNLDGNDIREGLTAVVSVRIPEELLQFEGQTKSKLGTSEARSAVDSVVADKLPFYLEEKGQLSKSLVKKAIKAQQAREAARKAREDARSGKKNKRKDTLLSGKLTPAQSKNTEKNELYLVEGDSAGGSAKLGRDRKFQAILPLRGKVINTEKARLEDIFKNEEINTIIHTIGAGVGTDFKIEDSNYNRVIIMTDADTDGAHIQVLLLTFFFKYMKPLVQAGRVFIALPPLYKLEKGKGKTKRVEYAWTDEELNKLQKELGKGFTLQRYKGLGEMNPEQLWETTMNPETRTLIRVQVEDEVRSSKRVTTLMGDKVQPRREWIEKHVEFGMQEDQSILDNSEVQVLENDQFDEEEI
Sequence of S. aureus TopoIV enzyme (P0C1U9 whole entry partner): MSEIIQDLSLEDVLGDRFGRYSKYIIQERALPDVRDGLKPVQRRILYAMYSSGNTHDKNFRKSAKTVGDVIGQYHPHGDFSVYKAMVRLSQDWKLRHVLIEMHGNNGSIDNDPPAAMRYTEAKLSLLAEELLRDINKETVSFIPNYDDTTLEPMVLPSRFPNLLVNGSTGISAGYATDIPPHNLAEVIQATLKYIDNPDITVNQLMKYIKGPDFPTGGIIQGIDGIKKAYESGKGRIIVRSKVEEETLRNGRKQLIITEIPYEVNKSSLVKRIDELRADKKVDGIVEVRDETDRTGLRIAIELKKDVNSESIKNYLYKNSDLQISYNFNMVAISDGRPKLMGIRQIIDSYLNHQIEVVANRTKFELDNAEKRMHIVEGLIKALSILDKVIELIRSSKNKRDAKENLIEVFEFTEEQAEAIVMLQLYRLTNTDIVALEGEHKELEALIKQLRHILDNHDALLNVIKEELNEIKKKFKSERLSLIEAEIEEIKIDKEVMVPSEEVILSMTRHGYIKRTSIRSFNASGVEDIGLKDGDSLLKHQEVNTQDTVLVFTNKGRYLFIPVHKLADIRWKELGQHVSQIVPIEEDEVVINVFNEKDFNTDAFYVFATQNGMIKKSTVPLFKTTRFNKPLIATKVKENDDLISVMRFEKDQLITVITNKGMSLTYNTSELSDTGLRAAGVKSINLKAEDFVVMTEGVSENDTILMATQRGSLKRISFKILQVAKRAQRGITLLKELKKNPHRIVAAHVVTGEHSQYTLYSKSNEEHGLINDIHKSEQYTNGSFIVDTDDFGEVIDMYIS

Row | SMILES | Ki [1] [nM] | solubility at 96 h [2] [mg/mL] | Ki [3] [nM] | Ki [1, 4] [nM]
1 | CCNC(=O)Nc1nc2cc(-c3cnc(C(C)(C)O)nc3)c(F)c([C@H]3CCCO3)c2[nH]1 [Compound 23, (R)-1-ethyl-3-(6-fluoro-5-(2-(2-hydroxypropan-2-yl)pyrimidin-5-yl)-7-(tetrahydrofuran-2-yl)-1H-benzo[d]imidazol-2-yl)urea] | 9 | < 0.001 | – | –
2 | CCNC(=O)Nc1nc2cc(-c3cnc(C(C)(C)OP(=O)(O)OCCOCCOC)nc3)c(F)c([C@H]3CCCO3)c2[nH]1 [Compound X, ammonium (R)-2-(5-(2-(3-ethylureido)-6-fluoro-7-(tetrahydrofuran-2-yl)-1H-benzo[d]imidazol-5-yl)pyrimidin-2-yl)propan-2-yl 2-(2-methoxyethoxy)ethyl phosphate] | – | 12.7 | < 9 | 45
3 | CCCCCCCCCCCCCCCCOP(=O)(O)OC(C)(C)c1ncc(-c2cc3nc(NC(=O)NCC)[nH]c3c([C@H]3CCCO3)c2F)cn1 [Compound Y, ammonium (R)-2-(5-(2-(3-ethylureido)-6-fluoro-7-(tetrahydrofuran-2-yl)-1H-benzo[d]imidazol-5-yl)pyrimidin-2-yl)propan-2-yl hexadecyl phosphate] | – | < 0.001 | 13 | 24
4 | CCNC(=O)Nc1nc2cc(-c3cnc(C(C)(C)OP(=O)(O)OCCN4CCOCC4)nc3)c(F)c([C@H]3CCCO3)c2[nH]1 [Compound Z, 2-(5-(2-(3-ethylureido)-6-fluoro-7-((R)-tetrahydrofuran-2-yl)-1H-benzo[d]imidazol-5-yl)pyrimidin-2-yl)propan-2-yl 2-morpholinoethyl hydrogen phosphate] | – | > 41 | < 9 | 80

From patent US9125922B2, “Phosphate esters of gyrase and topoisomerase inhibitors” (priority 2011, dated 2015)
